From US20170334877A1, “REVAPRAZAN HYDROCHLORIDE POLYMORPHS AND PREPARATION METHOD THEREFOR” (JIANGSU TASLY DIYI PHARMACEUTICAL CO., LTD., priority 2014, published 2017)
Structures can show the parent of a compound that is named as a salt. One block for each molecule: values may come before it.

What was measured:
Type in all cases: physicochemical
[1] = High temperature test (60° C. incubator); conditions: for Appearance color / Loss on drying (%) / Purity (%) / Relevant substances: 60° C., hydrochloride; for Stability (conclusion in words): high temperature, no obvious changes in appearance color, loss on drying, purity, relevant substances
Description: Revaprazan hydrochloride crystalline form I is placed in a 60° C. incubator, and is sampled on the 5th day and 10th day for detection, and the results are shown in Table 2. Revaprazan hydrochloride crystalline form II is placed in a 60° C. incubator, and is sampled on the 5th day and 10th day for detection, and the results are shown in Table 6. Revaprazan hydrochloride polymorph III is placed in an incubator of 60° C., and is sampled on the 5th day and the 10th day for detection. Revaprazan hydrochloride crystalline form IV is placed in an incubator of 60° C., and is sampled on the 5th day and the 10th day for detection. Revaprazan hydrochloride crystal form 4 is placed in an incubator of 60° C.; and is sampled on the 5th day and the 10th day for detection, and the results are shown in Table 23.

[2] = Accelerated test (40±2° C., relative humidity 75±5%, 6 months, sealed polyethylene film bag); conditions: for Appearance color / Purity (%) / Relevant substances: 40±2° C., RH 75±5%; for Purity (%) / Relevant substances: hydrochloride; for Stability (conclusion in words): accelerated test, no obvious changes in appearance color, purity, relevant substances
Description: Revaprazan hydrochloride crystalline form I is sealed in a polyethylene film bag, is placed for 6 months under the conditions that the temperature is 40±2° C. and the relative humidity is 75±5%, and is respectively sampled at the end of the 1st Month, the 2nd Month, the 3rd Month and the 6^thMonth for detection; and the results are shown in Table 4. Revaprazan hydrochloride crystalline form II is sealed in a polyethylene film bag and is placed for 6 months under the conditions that the temperature is 40±2° C. and the relative humidity is 75±5%, and is respectively sampled at the end of the 1st Month, the 2nd Month, the 3rd Month and the 6th Month for detection; and the results are shown in Table 8. Revaprazan hydrochloride crystalline form III is sealed in a polyethylene film bag, is placed for 6 months under the conditions that the temperature is 40±2° C. and the relative humidity is 75±5%, and is sampled at the end of the 1st Month, the 2nd Month, the 3rd Month and the 6th Month for detection. Revaprazan hydrochloride crystalline form IV is sealed in a polyethylene film bag, is placed for 6 months under the conditions that the temperature is 40±2° C. and the relative humidity is 75±5%, and is sampled at the end of the 1st Month, the 2nd Month, the 3rd Month and the 6th Month for detection. Revaprazan hydrochloride crystalline form V is sealed in a polyethylene film bag and is placed for 6 months under the condition that the temperature is 40±2° C. and the relative humidity is 75±5%, and is sampled at the end of the 1st month, the 2nd month, the 3rd month and the 6th month for detection, and the results are shown in Table 20.

[3] = High humidity test (25° C., relative humidity 75±5%); conditions: for Appearance color / Purity (%) / Weight gain upon moisture absorption (%) / Relevant substances: 25° C., RH 75±5%; for Weight gain upon moisture absorption (in words): high humidity condition; for Stability (conclusion in words): high humidity, no obvious changes in appearance color, purity, relevant substances
Description: Revaprazan hydrochloride crystalline form I is placed in an incubator of 25° C. (relative humidity of 75±5%), and is sampled on the 5th day and 10th day for detection. Revaprazan hydrochloride crystalline form II is placed in an incubator of 25° C. (relative humidity of 75±5%), and is sampled on the 5th day and 10th day for detection. Revaprazan hydrochloride polymorph III is placed in an incubator of 25° C. (relative humidity of 75±5%), and is sampled on the 5th day and the 10th day for detection. Revaprazan hydrochloride crystalline form IV is placed in an incubator of 25° C. Revaprazan hydrochloride crystal form 4 is placed in an incubator of 25° C. (the relative humidity is 75±5%), and is sampled on the 5th day and the 10th day for detection.

[4] = Light illumination test (intense light, 4500±500 Lx); conditions: for Stability (conclusion in words): intense light illumination, no obvious changes in appearance color, loss on drying, purity, relevant substances; for Appearance color / Loss on drying (%) / Purity (%) / Relevant substances: light 4500±500 Lx; for Loss on drying (%) / Purity (%) / Relevant substances: hydrochloride
Excerpt: Revaprazan hydrochloride crystalline form I is irradiated under such a condition that the light intensity is 4500±500 Lx, and is sampled on the 5th day and 10th day for detection, and the results are shown in Table 1. Revaprazan hydrochloride crystalline form II is irradiated under the condition that the light intensity is 4500±500Lx, and is sampled on the 5th day and 10th day for detection. Revaprazan hydrochloride polymorph III is irradiated under such a condition that the light intensity is 4500±500Lx, and is sampled on the 5th day and 10th day for detection. Revaprazan hydrochloride […] is irradiated under such a condition that the light intensity is 4500±500Lx, and is sampled on the 5th day and the 10th day for detection. Revaprazan hydrochloride crystalline form V is irradiated under the light intensity condition of 4500±500Lx; and is sampled on the 5th day and 10th day for detection.

Appearance color ([1]; 5th day): White powder
Loss on drying (%) ([1]; 5th day): 0.27%
Purity (%) ([1]; 5th day): 99.91%
Relevant substances ([1]; 5th day): Undetected
Appearance color ([1]; 10th day): White powder
Loss on drying (%) ([1]; 10th day): 0.27%
Purity (%) ([1]; 10th day): 99.92%
Relevant substances ([1]; 10th day): Undetected
Appearance color ([1]; Day 0): White powder
Loss on drying (%) ([1]; Day 0): 0.25%
Purity (%) ([1]; Day 0): 99.93%
Relevant substances ([1]; Day 0): Undetected
Stability (conclusion in words) [1]: stable
Appearance color ([2]; 1st month): White powder
Purity (%) ([2]; 1st month): 99.91%
Relevant substances ([2]; 1st month): Undetected
Appearance color ([2]; 2nd month): White powder
Purity (%) ([2]; 2nd month): 99.90%
Relevant substances ([2]; 2nd month): Undetected
Appearance color ([2]; 3rd month): White powder
Purity (%) ([2]; 3rd month): 99.95%
Relevant substances ([2]; 3rd month): Undetected
Appearance color ([2]; 6th month): White powder
Purity (%) ([2]; 6th month): 99.94%
Relevant substances ([2]; 6th month): Undetected
Appearance color ([2]; Month 0): White powder
Purity (%) ([2]; Month 0): 99.93%
Relevant substances ([2]; Month 0): Undetected
Stability (conclusion in words) [2]: stable
Appearance color ([3]; 5th day): White powder
Purity (%) ([3]; 5th day, hydrochloride): 99.96%
Weight gain upon moisture absorption (%) ([3]; 5th day, hydrochloride): 0.44%
Appearance color ([3]; 10th day): White powder
Purity (%) ([3]; 10th day, hydrochloride): 99.93%
Weight gain upon moisture absorption (%) ([3]; 10th day, hydrochloride): 0.62%
Appearance color ([3]; Day 0): White powder
Weight gain upon moisture absorption (%) ([3]; Day 0): 0%
Purity (%) ([3]; Day 0, hydrochloride): 99.93%
Weight gain upon moisture absorption (in words) [3]: slight weight gain
Stability (conclusion in words) [3]: stable
Stability (conclusion in words) [4]: stable
Appearance color ([4]; 5th day): White powder
Loss on drying (%) ([4]; 5th day): 0.29%
Purity (%) ([4]; 5th day): 99.95%
Relevant substances ([4]; 5th day): Undetected
Appearance color ([4]; 10th day): White powder
Loss on drying (%) ([4]; 10th day): 0.31%
Purity (%) ([4]; 10th day): 99.92%
Relevant substances ([4]; 10th day): Undetected
Appearance color ([4]; Day 0): White powder
Loss on drying (%) ([4]; Day 0): 0.27%
Purity (%) ([4]; Day 0): 99.93%
Relevant substances ([4]; Day 0): Undetected
Structure (SMILES): Cc1nc(Nc2ccc(F)cc2)nc(N2CCc3ccccc3C2C)c1C (single isomer, unassigned) [revaprazan hydrochloride crystalline form IV]

Appearance color ([1]; 5th day): White powder
Loss on drying (%) ([1]; 5th day): 0.23%
Purity (%) ([1]; 5th day): 99.95%
Relevant substances ([1]; 5th day): Not detected
Appearance color ([1]; 10th day): White powder
Loss on drying (%) ([1]; 10th day): 0.24%
Purity (%) ([1]; 10th day): 99.98%
Relevant substances ([1]; 10th day): Not detected
Appearance color ([1]; Day 0): White powder
Loss on drying (%) ([1]; Day 0): 0.21%
Purity (%) ([1]; Day 0): 99.96%
Relevant substances ([1]; Day 0): Not detected
Stability (conclusion in words) [1]: stable
Appearance color ([2]; 1st month): White powder
Purity (%) ([2]; 1st month): 99.97%
Relevant substances ([2]; 1st month): Not detected
Appearance color ([2]; 2nd month): White powder
Purity (%) ([2]; 2nd month): 99.92%
Relevant substances ([2]; 2nd month): Not detected
Appearance color ([2]; 3rd month): White powder
Purity (%) ([2]; 3rd month): 99.96%
Relevant substances ([2]; 3rd month): Not detected
Appearance color ([2]; 6th month): White powder
Purity (%) ([2]; 6th month): 99.95%
Relevant substances ([2]; 6th month): Not detected
Appearance color ([2]; Month 0): White powder
Purity (%) ([2]; Month 0): 99.96%
Relevant substances ([2]; Month 0): Not detected
Stability (conclusion in words) [2]: stable
Appearance color ([3]; 5th day): White powder
Purity (%) ([3]; 5th day, hydrochloride): 99.93%
Relevant substances ([3]; 5th day, hydrochloride): Not detected
Weight gain upon moisture absorption (%) ([3]; 5th day, hydrochloride): 0.42%
Appearance color ([3]; 10th day): White powder
Purity (%) ([3]; 10th day, hydrochloride): 99.95%
Relevant substances ([3]; 10th day, hydrochloride): Not detected
Weight gain upon moisture absorption (%) ([3]; 10th day, hydrochloride): 0.63%
Appearance color ([3]; Day 0): White powder
Weight gain upon moisture absorption (%) ([3]; Day 0): 0%
Purity (%) ([3]; Day 0, hydrochloride): 99.96%
Relevant substances ([3]; Day 0, hydrochloride): Not detected
Weight gain upon moisture absorption (in words) [3]: slight weight gain
Stability (conclusion in words) [3]: stable
Stability (conclusion in words) [4]: stable
Appearance color ([4]; 5th day): White powder
Loss on drying (%) ([4]; 5th day): 0.28%
Purity (%) ([4]; 5th day): 99.92%
Relevant substances ([4]; 5th day): Not detected
Appearance color ([4]; 10th day): White powder
Loss on drying (%) ([4]; 10th day): 0.30%
Purity (%) ([4]; 10th day): 99.94%
Relevant substances ([4]; 10th day): Not detected
Appearance color ([4]; Day 0): White powder
Loss on drying (%) ([4]; Day 0): 0.27%
Purity (%) ([4]; Day 0): 99.96%
Relevant substances ([4]; Day 0): Not detected
Structure (SMILES): Cc1nc(Nc2ccc(F)cc2)nc(N2CCc3ccccc3C2C)c1C (single isomer, unassigned) [revaprazan hydrochloride crystalline form I]
